Columns and labels:
Type in all cases: in vivo
[1] = test system: human female patients diagnosed as having endometriosis; assay: Phase 2b human clinical trial in endometriosis, 24-week treatment and post-treatment follow-up; settings: for Bone Mineral Density (Mean % change from baseline): spine
Procedure: This example describes the results of a Phase 2b human clinical trial undertaken to evaluate the efficacy of a GnRH antagonist represented by formula (VI) in a series of patients suffering from an estrogen-dependent disease. In this trial, a series of human female patients diagnosed as having endometriosis were administered the choline salt of 3-[2-fluoro-5-(2,3-difluoro-6-methoxybenzyloxy)4-methoxyphenyl]-2,4-dioxo-1,2,3,4-tetrahydrothieno [3,4d]pyrimidine-5-carboxylic acid periodically over the course of a 24-week treatment period. After 24 weeks of treatment, various patients entered a 24-week post-treatment follow-up period during which the patients were monitored for serum β17-estradiol (E2) concentration, severity of disease symptoms, and bone mineral density.
A series of n=328 human female patients having clinically-diagnosed endometriosis were randomly assigned to treatment arms in which patients were to be administered placebo or the GnRH antagonist in a once-daily amount of 50 mg/day, 100 mg/day, 75 mg/day, or 200 mg/day. Patients initially treated with placebo (plc) were administered the GnRH antagonist in an amount of 100 mg/day after 12 weeks. Also, after 12 weeks, patients that were initially administered 75 mg/day were provided a higher (100 mg/day) or lower (50 mg/day) dosage of the GnRH antagonist based on the patients' E2 levels at the 12-week point. The E2 levels for this group of patients is represented by “75 mg (TD)” in FIGS. 1-3. Patients that were administered 75 mg through the end of the treatment period are represented by “75 mg (FD)” in FIGS. 1-3.
After 24 weeks of continuous, once-daily treatment, administration of the GnRH antagonist ceased. A set of n=65 patients entered the 24-week post-treatment follow-up study. Following the 24-week treatment period, these patients were periodically monitored. The median E2 levels of patients that were administered the GnRH antagonist during the original 24-week treatment period and that subsequently entered the 24-week post-treatment follow-up study are shown in FIG. 1. FIGS. 2 and 3 show the mean change in dyspareunia and dyschezia scores for such patients over the 24-week treatment period and a 12-week portion of the post-treatment follow-up period.

[2] = test system: human female patients diagnosed as having uterine fibroids; assay: PRIMROSE 1 Phase 3 placebo-controlled trial in uterine fibroids; settings: for proportion of patients with menstrual blood loss ≤80 mL and ≥50% reduction from baseline: 24 weeks
From the text: (§1) This example describes the results of two Phase 3, double-blind, randomized, placebo-controlled, multicenter, human clinical trials undertaken to evaluate the efficacy of the GnRH antagonist represented by formula (VI) in a series of patients suffering from uterine fibroids. In these trials, referred to herein as “PRIMROSE 1” and “PRIMROSE 2,” human female patients diagnosed as having uterine fibroids were periodically administered compound (VI), 3-[2-fluoro-5-(2,3-difluoro-6-methoxybenzyloxy)4-methoxyphenyl]-2,4-dioxo-1,2,3,4-tetrahydrothieno [3,4d]pyrimidine-5-carboxylic acid, in the form of a choline salt over the course of a 12-month treatment period. Patients were administered compound (VI) once daily in an amount of either 100 mg or 200 mg. Patients receiving compound (VI) in a daily amount of 200 mg also received once daily hormonal add-back therapy (ABT), which consisted of […] of β17-estradiol (E2) per day and 0.5 mg of norethindrone acetate (NETA) per day.
(§2) The PRIMROSE 1 study, conducted in the United States, enrolled 526 women. The PRIMROSE 2 study, conducted in the United States and Europe, enrolled 535 women.
(§3) Patients were randomized to one of several cohorts: (i) placebo, (ii) 100 mg/day of compound (VI), or (iii) 200 mg/day of compound (VI). Patients receiving 200 mg/day of compound (VI) also received once-daily ABT containing 1.0 mg E2 and 0.5 mg NETA.
(§4) Patients were assessed for uterine fibroid symptomology at baseline, after 24 weeks of treatment, and again after 52 weeks of treatment. […] Patients were also assessed in order to determine the number of days of uterine bleeding during their last 28-day interval prior to week 24 of treatment with placebo or compound (VI).
(§5) Pain levels were measured using a Verbal Rating Score (VRS), as described herein. Patients were also assessed to determine the proportion that reported an improvement in quality of life using the Uterine Fibroids Symptoms and Health-Related Quality of Life questionnaire.
(§6) To evaluate the safety of compound (VI), patients' bone mineral density levels were measured at baseline and at various timepoints during the studies.

[3] = test system: human female patients diagnosed as having uterine fibroids; assay: PRIMROSE 2 Phase 3 placebo-controlled trial in uterine fibroids
From the text: as §1, §2, §3, §4, §5, §6

[4] = once-daily treatment, 24 and 52 weeks, FIG. 9

## COc1cc(F)c(-n2c(=O)[nH]c3csc(C(=O)O)c3c2=O)cc1OCc1c(OC)ccc(F)c1F [Compound (VI), 3-[2-fluoro-5-(2,3-difluoro-6-methoxybenzyloxy)4-methoxyphenyl]-2,4-dioxo-1,2,3,4-tetrahydrothieno [3,4d]pyrimidine-5-carboxylic acid]
[1]; 75 mg once daily (choline salt), after 24 weeks of treatment, n = 48
  Overall Pelvic Pain Responder Rate (VRS score reduction of > 30% from baseline): 70.8%
[1]; 75 mg once daily for 24 weeks, 12 weeks after cessation of treatment, n = 7
  Overall Pelvic Pain Responder Rate (VRS score reduction of > 30% from baseline): 87.5%
[1]; 200 mg once daily (choline salt), after 24 weeks of treatment, n = 44
  Overall Pelvic Pain Responder Rate (VRS score reduction of > 30% from baseline): 77.3%
[1]; 200 mg once daily for 24 weeks, 12 weeks after cessation of treatment, n = 10
  Overall Pelvic Pain Responder Rate (VRS score reduction of > 30% from baseline): 70.0%
[1]; after cessation of 24-week once-daily treatment, 12-week portion of follow-up, FIG. 2
  dyspareunia, Verbal Rating Score (VRS): sustained reduction
[1]; after cessation of 24-week once-daily treatment, 12-week portion of follow-up, FIG. 3
  dyschezia, Numerical Rating Score (NRS): sustained reduction
[1]; 75 mg once daily for 24 weeks, 12 weeks after cessation of treatment
  Bone Mineral Density (Mean % change from baseline): +0.313%
[1]; 75 mg once daily, after 24 weeks of treatment
  Bone Mineral Density (Mean % change from baseline): −0.798%
[1]; 200 mg once daily for 24 weeks, 12 weeks after cessation of treatment
  Bone Mineral Density (Mean % change from baseline): +1.135%
[1]; 200 mg once daily, after 24 weeks of treatment
  Bone Mineral Density (Mean % change from baseline): −2.602%
[2]; 100 mg/day
  p value: Improvement in quality of life, Change from baseline in quality of life (QoL) symptom severity score (LS mean): p = 0.002
[2]; 200 mg/day + once-daily ABT
  p value: Improvement in quality of life, Change from baseline in quality of life (QoL) symptom severity score (LS mean): p < 0.001
[2]; 100 mg per day without ABT, p=0.003, placebo 35%
  proportion of patients with menstrual blood loss ≤80 mL and ≥50% reduction from baseline: 56.4%
[2]; 200 mg per day + ABT (1.0 mg E2 + 0.5 mg NETA), p<0.001, placebo 35%
  proportion of patients with menstrual blood loss ≤80 mL and ≥50% reduction from baseline: 75.5%
[2]; [4]
  bone mineral density, lumbar spine: does not induce a substantial decrease in bone mineral density
[3]; 100 mg/day
  p value: Improvement in quality of life, Change from baseline in quality of life (QoL) symptom severity score (LS mean): p = 0.004
[3]; 200 mg/day + once-daily ABT
  p value: Improvement in quality of life, Change from baseline in quality of life (QoL) symptom severity score (LS mean): p < 0.001
[3]; 52 weeks, 100 mg per day without ABT
  proportion of patients with menstrual blood loss to a level of 80 mL and a 50% reduction from baseline: 53.2%
[3]; 52 weeks, 200 mg per day + ABT
  proportion of patients with menstrual blood loss ≤80 mL and ≥50% reduction from baseline: 91.6%
[3]; [4]
  bone mineral density, lumbar spine: does not induce a substantial decrease in bone mineral density

— patent US20220305017A1, “COMPOSITIONS AND METHODS FOR THE TREATMENT OF ESTROGEN-DEPENDENT DISORDERS” (ObsEva S.A., priority 2019, published 2022)
